Data taken from US20250170141A1, “MRGPRX2 MODULATORS AND RELATED METHODS OF TREATMENT” (Escient Pharmaceuticals, Inc., priority 2023, published 2025).
Where two headings read alike, the source gives them in different places.

Columns and labels:
[1] = test system: Human LAD2 cells; assay: Mast Cell Beta-Hexosaminidase Release Assay (LAD2 cells, 500 nM Cortistatin-14); assay type: cell-based; conditions: read-out: MRGPRX2 Antagonist Activity
Protocol: Human LAD2 cells (NIH) were maintained in an incubator at 37° C. with 5% CO2 and cultured in StemPro-34 serum-free media (Gibco 10639011) supplemented with 2 mM L-glutamine, 100 U/ml penicillin, […] streptomycin and 100 ng/ml SCF (Invitrogen PEP0860), at a concentration of 2-5×10^5 cells/mL, with hemidepletion every 1-2 weeks.
Cells were transferred to SCF-Free medium at 2.5×10^5 cells/mL and kept in an incubator overnight. On the day of the assay, cells were washed twice in Assay Buffer (final concentrations 10 mM HEPES, 137 mM NaCl, 5.6 mM D-glucose, 2.7 mM KCl, 1 mM MgCl, 1.8 mM CalCl2, 0.4 mM Na2HPO4·7H2O, 0.04% BSA, pH=7.4) and plated in a 96-well v-bottom plate at 20,000 cells per well in 80 μL Assay Buffer. Antagonist compounds solubilized at 10 mM in DMSO were diluted in Assay Buffer to 10× final desired concentrations as a 10-point curve (10 μM final top concentration with 1:3 serial dilutions) and 10 μL added per well. Plates were then incubated for 1 hour at 37° C. Agonists were diluted in Assay Buffer to 10× desired concentrations and 10 μL of the appropriate agonist added to each well. The final concentration of Cortistatin-14 (Tocris 3374) used in antagonist assays was 500 nM. Final concentrations of DMSO were kept consistent across the plate. Plates were then incubated in a warm air oven for 30 minutes at 37° C., followed by centrifugation at 4° C. for 5 minutes at 450×g. 50 μL supernatant from each well was then transferred to a 96-well flat bottom plate containing 100 μL substrate solution per well (3.5 mg/mL p-Nitrophenyl-N-acetyl-o-D-glucosaminide (Sigma 487052) in Citrate Buffer containing a final concentration of 40 mM Citric Acid, 20 mM Na2HPO4·7H2O, pH=4.5). To the cell pellets left in the remaining assay buffer, 150 μL 0.1% Triton-X-100 was then added to each well, resuspended by pipetting up and down, and 50 μL cell lysates transferred to a second 96-well flat bottom plate containing 100 μL substrate solution per well. Plates containing transferred supernatant and cell lysates were then incubated in a warm air oven for 90 minutes at 37° C. After incubation, 50 μL of 400 mM Glycine buffer (pH 10.7) was added into each well and the plate was read on a Molecular Devices SpectraMax iD5 plate reader (absorbance at 405 nm with reference filter at 620 nm). After background subtraction, the percentage degranulation (percent beta-hexosaminidase release) was calculated as 100×(supernatant values)/(supernatant+lysate values), followed by analysis using GraphPad Prism software to calculate an IC50 value for each compound.
The activity ranges are denoted as follows: “+++++” denotes antagonist activity <100 nM; “++++” denotes antagonist activity between 100 and 500 nM; “+++” denotes activity between 501 and 1000 nM; “++” denotes activity between 1001 and 2500 nM; and “+” denotes activity >2500 nM.

[2] = Mouse Pharmacokinetic Studies (50 mg/kg oral gavage, plasma LC-MS/MS); assay type: in vivo; conditions: male C57BL/6 mice, non-fasted
Protocol: Compounds were formulated in 5% DMSO, 5% Solutol, and 90% PBS without Ca and Mg (pH 7.4) at a concentration of […]. Male C57BL/6 mice (n=6/compound) were administered a 50 mg/kg dose of each compound by oral gavage under a non-fasted condition. Blood samples were collected via the Submandibular vein onto K2-EDTA at 0.5, 1, 2, 4, 8 and 24 hours after dosing, and plasma was prepared and stored at −80° C. until analysis. Plasma sample preparation for analysis was done by protein precipitation using acetonitrile (including Verapamil as an internal standard) followed by centrifugation. Compound concentrations were determined in extracted plasma using LC-MS/MS relative to a 12-point standard curve covering the 1 to 4000 nM range. Non-compartmental analysis using Phoenix WinNonlin was used to estimate pharmacokinetic parameters including area under the curve, clearance, and half-life. The administered dose was confirmed by analysis of residual dosing material by UPLC-UV relative to a single point calibration sample.

[3] = target: T1, human MRGPRX2 (Homo sapiens, UniProt Q96LB1); assay: MRGPRX2 activity: IP-One Gq HTRF assay in CHO cells, antagonism versus 0.3 uM Cortistatin-14; assay type: cell-based; conditions: versus 0.3 uM Cortistatin-14 agonist, CHO cells expressing human MRGPRX2, read-out: MRGPRX2 Antagonist Activity
T1 construct: expressed in transfected cells; host or cells: CHO cells, stably transfected (G418 and Hygromycin B selection)
T1 sequence (Q96LB1 1-330): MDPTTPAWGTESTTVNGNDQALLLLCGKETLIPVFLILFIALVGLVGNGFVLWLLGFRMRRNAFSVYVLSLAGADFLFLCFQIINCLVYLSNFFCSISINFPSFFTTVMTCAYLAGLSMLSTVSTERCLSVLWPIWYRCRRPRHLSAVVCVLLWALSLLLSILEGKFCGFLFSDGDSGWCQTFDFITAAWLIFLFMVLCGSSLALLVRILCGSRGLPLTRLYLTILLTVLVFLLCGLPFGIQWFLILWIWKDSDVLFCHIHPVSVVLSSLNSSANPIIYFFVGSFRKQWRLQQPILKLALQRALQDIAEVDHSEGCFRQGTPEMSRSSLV
Procedure, shortened: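 CHO cells stably expressing human MRGPRX2 were treated with a 10-point compound curve (30 uM top, 1:3) plus 0.3 μM Cortistatin-14 in LiCl-containing Tris buffer, pH 8. Incubation was 1 h at 37 °C then 1 h at room temperature; IP-1 was detected by HTRF and IC50 came from the HTRF ratio.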

[4] = Homo sapiens, LAD2, Mast Cell Beta-Hexosaminidase Release Assay
[5] = male, C57BL/6, mouse, po, 50 mg/kg
[6] = Mast Cell Beta-Hexosaminidase Release Assay

SMILES | IC50 [3] [nM] | TBC ([2]; 50 mg/kg) [mL/min/kg] | also measured
CC(c1ccc(F)cc1)c1c(F)ccc2c1NC(NCc1ncccc1F)=NS2(=O)=O (single isomer, unassigned) [Compound 10-4A] | < 100 | 11 | IC50 [1, 4]: 100 to 500 nM; Cmax [2, 5]: 9600 nM; half-life [2, 5]: 4.4 h
Cc1c(F)cccc1CNC1=NS(=O)(=O)c2ccc(F)c(C(C)c3ccccc3F)c2N1 (single isomer, unassigned) [Compound 10-3B] | < 100 | 41 | IC50 [1, 6]: < 100 nM; Cmax ([2]; 50 mg/kg): 4200 nM; T1/2 ([2]; 50 mg/kg): 2 h
CC(c1ccccc1F)c1c(F)ccc2c1NC(NCc1cccc(F)c1)=NS2(=O)=O (single isomer, unassigned) [Compound 10-5A] | < 100 | 50 | IC50 [1, 6]: 1000 to 2500 nM; Cmax ([2]; 50 mg/kg): 2800 nM; half-life [2, 5]: 2.2 h
CC(c1ccccc1F)c1c(F)ccc2c1NC(NCc1ncccc1F)=NS2(=O)=O (single isomer, unassigned) [Compound 10-1A] | < 100 | 26 | IC50 [1, 4]: 100 to 500 nM; Cmax ([2]; 50 mg/kg): 4600 nM; half-life [2, 5]: 2.6 h
CC(c1ccccc1F)c1c(F)ccc2c1NC(NCc1cccc(F)n1)=NS2(=O)=O (single isomer, unassigned) [Compound 10-2A] | < 100 | 30 | IC50 [1, 6]: 501 to 1000 nM; Cmax ([2]; 50 mg/kg): 2700 nM; T1/2 ([2]; 50 mg/kg): 3.0 h
Cc1c(F)cccc1CNC1=NS(=O)(=O)c2ccc(F)c(C(C)c3ccccc3F)c2N1 (single isomer, unassigned) [Compound 10-3A] | < 100 | 4.3 | IC50 [1, 4]: 100 to 500 nM; Cmax ([2]; 50 mg/kg): 370 nM; half-life [2, 5]: 2.5 h
C[C@H](c1ccccc1F)c1c(F)c(F)cc2c1NC(NCc1ncccc1F)=NS2(=O)=O [Compound 10-6B, (R)-6,7-difluoro-5-(1-(2-fluorophenyl)ethyl)-3-(((3-fluoropyridin-2-yl)methyl)amino)-4H-benzo[e][1,2,4]thiadiazine 1,1-dioxide] | 100 to 500 |  | IC50 [1, 4]: 100 to 500 nM; TBC [2]: 33 mL/min/kg; Cmax [2, 5]: 2700 nM
Cc1ccc(CNC2=NS(=O)(=O)c3cccc(Cc4ccccc4Cl)c3N2)cc1C [Compound 12-13, 5-(2-chlorobenzyl)-3-((3,4-dimethylbenzyl)amino)-4H-benzo[e][1,2,4]thiadiazine 1,1-dioxide] | < 100 |  | 
CC(c1ccc(S(C)(=O)=O)cc1)c1c(F)ccc2c1NC(NCc1cccc(F)c1)=NS2(=O)=O (stereo not shown) [Compound 22-20, 6-fluoro-3-((3-fluorobenzyl)amino)-5-(1-(4-(methylsulfonyl)phenyl)ethyl)-4H-benzo[e][1,2,4]thiadiazine 1,1-dioxide] | 100 to 500 |  | 

The next lines start with results.

IC50 [3] [nM] | SMILES | TBC ([2]; 50 mg/kg) [mL/min/kg] | also measured
100 to 500 | CC(c1ccc2c(c1)CCCC2)c1c(F)ccc2c1NC(NCc1cccc(F)c1)=NS2(=O)=O (stereo not shown) [Compound 22-9, 6-fluoro-3-((3-fluorobenzyl)amino)-5-(1-(5,6,7,8-tetrahydronaphthalen-2-yl)ethyl)-4H-benzo[e][1,2,4]thiadiazine 1,1-dioxide] |  | 
100 to 500 | O=S1(=O)N=C(NCc2ncccc2F)Nc2c1ccc(F)c2Oc1ccccc1F [Compound 1-15, 6-fluoro-5-(2-fluorophenoxy)-3-(((3-fluoropyridin-2-yl)methyl)amino)-4H-benzo[e][1,2,4]thiadiazine 1,1-dioxide] |  | 
< 100 | O=S1(=O)N=C(NCc2cccc(Cl)c2)Nc2c(Cc3ccccc3Cl)cccc21 [Compound 12-16, 5-(2-chlorobenzyl)-3-((3-chlorobenzyl)amino)-4H-benzo[e][1,2,4]thiadiazine 1,1-dioxide] |  | 
> 2500 | O=S1(=O)N=C(NCc2ncccc2O)Nc2c1ccc(F)c2Oc1ccccc1Cl [Compound 1-37, 5-(2-chlorophenoxy)-6-fluoro-3-(((3-hydroxypyridin-2-yl)methyl)amino)-4H-benzo[e][1,2,4]thiadiazine 1,1-dioxide] |  | 
< 100 | O=S1(=O)N=C(NCc2ncccc2Cl)Nc2c(Cc3ccccc3Cl)cccc21 [Compound 12-3, 5-(2-chlorobenzyl)-3-(((3-chloropyridin-2-yl)methyl)amino)-4H-benzo[e][1,2,4]thiadiazine 1,1-dioxide] |  | 
< 100 | Cc1cc(C(C)c2c(F)ccc3c2NC(NCc2cccc(F)c2)=NS3(=O)=O)ccn1 (stereo not shown) [Compound 22-21, 6-fluoro-3-((3-fluorobenzyl)amino)-5-(1-(2-methylpyridin-4-yl)ethyl)-4H-benzo[e][1,2,4]thiadiazine 1,1-dioxide] |  | 
< 100 | O=S1(=O)N=C(NCc2ncccc2Cl)Nc2c1cc(F)c(F)c2Oc1ccccc1Cl [Compound 1-6, 5-(2-chlorophenoxy)-3-(((3-chloropyridin-2-yl)methyl)amino)-6,7-difluoro-4H-benzo[e][1,2,4]thiadiazine 1,1-dioxide] |  | 
501 to 1000 | COc1ccccc1CNC1=NS(=O)(=O)c2cc(F)c(F)c(Cc3ccccc3Cl)c2N1 [Compound 4-9, 5-(2-chlorobenzyl)-6,7-difluoro-3-((2-methoxybenzyl)amino)-4H-benzo[e][1,2,4]thiadiazine 1,1-dioxide] |  | 
> 2500 | O=S1(=O)N=C(N2CCc3cccnc3C2)Nc2c1ccc(F)c2Oc1ccccc1Cl [Compound 1-52, 5-(2-chlorophenoxy)-3-(5,8-dihydro-1,7-naphthyridin-7(6H)-yl)-6-fluoro-4H-benzo[e][1,2,4]thiadiazine 1,1-dioxide] |  | 
100 to 500 | O=S1(=O)N=C(NCc2ncccc2F)Nc2c1ccc(F)c2Oc1cccc(F)c1 [Compound 2-8, 6-fluoro-5-(3-fluorophenoxy)-3-(((3-fluoropyridin-2-yl)methyl)amino)-4H-benzo[e][1,2,4]thiadiazine 1,1-dioxide] |  | 
